In patent publication US11827628B2, “Compositions and methods for inhibition of the JAK pathway” (Rigel Pharmaceuticals, Inc., priority 2005, dated 2023):
Counter-ions that a name gives are not always drawn.

Experiments:
[1] = test system: IL-4 stimulated expression of CD23 in human Ramos B cells (JAK-1 and JAK-3); assay: Assay for Ramos B-Cell Line Stimulated with IL-4 (CD23 upregulation, FACS); type: cell-based; conditions: Homo sapiens, Ramos, Ramos B cells stimulated with IL-4, CD23 expression by FACS; read-out: IC50, Example 41
Procedure, shortened: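 Read-out: anti-CD23-PE flow cytometry on Ramos B cells, giving IC50. Cells (5×10^4 per point, RPMI + 5% serum) get compound or DMSO for 1 h at 37 °C, then IL-4 50 units/mL final for 20-24 h.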

[2] = test system: up-regulation of ICAM-1 (CD54) by IFNγ in U937 human monocytic cells; assay: U937 IFNγ ICAM1 FACS Assay; type: cell-based; conditions: Homo sapiens, U-937, U937 cells stimulated with IFNγ, ICAM-1 expression by FACS; read-out: IC50, Example 44
Procedure, shortened: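 U937 cells in 10% FCS RPMI were preincubated 30 min at 37 °C with an 8-point, 3-fold compound dilution series in duplicate, then stimulated with IFNγ for 18–24 h. Surface ICAM-1 was stained with APC anti-ICAM-1 and read by flow cytometry as geometric mean on live-gated cells. EC50 was derived.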

SMILES	IC50 [1] [µM]	IC50 [2] [µM]
NS(=O)(=O)c1cccc(Nc2ncc(F)c(Nc3ccc(C(=O)N4CCSCC4)cc3)n2)c1 [IX-34, N2-(3-Aminosulfonylphenyl)-5-fluoro-N4-[4-(4-thiomorpholinyl)carbonylphenyl]-2,4-pyrimidinediamine]	0.582	3.95
N#CCc1c[nH]c2cc(Nc3nc(Nc4cccc(S(N)(=O)=O)c4)ncc3F)ccc12 [IX-12, N2-(3-Aminosulfonylphenyl)-N4-(3-cyanomethyl-1H-indol-6-yl)-5-fluoro-2,4-pyrimidinediamine]	0.0973	3.48
NS(=O)(=O)c1cccc(Nc2ncc(F)c(Nc3ccc(Cl)c(Cl)c3)n2)c1 [VI-110, N2-(3-Aminosulfonylphenyl)-N4-(3,4-dichlorophenyl)-5-fluoro-2,4-pyrimidinediamine]	0.0836	5.46
N#CCN1C(=O)CSc2ccc(Nc3nc(Nc4ccc(S(N)(=O)=O)cc4)ncc3F)cc21 [Compound V-11, N2-(4-Aminosulphonylphenyl)-5-fluoro-N4-(3-oxo-4-cyanomethyl-benzo[1,4]thiazin-6-yl)-2,4-pyrimidinediamine]	0.0698	1.42
NS(=O)(=O)c1cccc(Nc2ncc(F)c(Nc3ccc(-c4cnco4)cc3)n2)c1 [IV-5, N2-(3-Aminosulfonylphenyl)-5-fluoro-N4-[4-(1,3-oxazol-5-yl)phenyl]-2,4-pyrimidinediamine]	0.0977	0.504
NS(=O)(=O)c1cc(Nc2ncc(F)c(Nc3ccc(O)cc3)n2)ccc1F [VI-100, N2-(3-Aminosulfonyl-4-fluorophenyl)-5-fluoro-N4-(4-hydroxyphenyl)-2,4-pyrimidinediamine]	0.321	4.9
NS(=O)(=O)c1ccc(Nc2ncc(F)c(NCCc3ccc(-n4ccnc4)cc3)n2)cc1 [III-90, N2-(4-Aminosulfonylphenyl)-5-fluoro-N4-[4-(1-imidazolyl)phenethyl]-2,4-pyrimidinediamine]	0.358	2.63
CNC(=O)OCc1cccc(Nc2nc(Nc3ccc(C)c(S(N)(=O)=O)c3)ncc2F)c1 [VI-49, N2-(3-Aminosulfonyl-4-methylphenyl)-5-fluoro-N4-[3-(methylaminocarbonyloxymethyl)phenyl]-2,4-pyrimidinediamine]	0.268	2.1
NS(=O)(=O)c1cccc(Nc2ncc(F)c(Nc3ccc4ncccc4c3)n2)c1 [VII-70, N2-(3-Aminosulfonylphenyl)-5-fluoro-N4-(quinolin-6-yl)-2,4-pyrimidinediamine]	0.0654	2.76
NS(=O)(=O)c1cccc(Nc2ncc(F)c(Nc3ccc(C(F)(F)F)cc3)n2)c1 [VI-51, N2-(3-Aminosulfonylphenyl)-5-fluoro-N4-(4-trifluoromethylphenyl)-2,4-pyrimidinediamine]	0.152	2.13
COc1ccc(Nc2nc(Nc3ccc(C)c(S(N)(=O)=O)c3)ncc2F)nc1N [VII-9, N2-(3-Aminosulfonyl-4-methylphenyl)-N4-[2-amino-3-methoxypyrid-6-yl]-5-fluoro-2,4-pyrimidinediamine]	0.246	5.35
N#CCc1c[nH]c2ccc(Nc3nc(Nc4cccc(S(N)(=O)=O)c4)ncc3F)cc12 [IX-13, N2-(3-Aminosulfonylphenyl)-N4-(3-cyanomethyl-1H-indol-5-yl)-5-fluoro-2,4-pyrimidinediamine]	0.138	1.85
Cc1ccc2cc(Nc3nc(Nc4cccc(S(N)(=O)=O)c4)ncc3F)ccc2n1 [VII-72, N2-(3-Aminosulfonylphenyl)-5-fluoro-N4-(2-methylquinolin-6-yl)-2,4-pyrimidinediamine]	0.0848	1.18
COc1ccc(Nc2nc(Nc3cc(C)c(Cl)c(S(N)(=O)=O)c3)ncc2F)cc1Cl [VI-17, N2-(3-Aminosulfonyl-4-chloro-5-methylphenyl)-N4-(3-chloro-4-methoxyphenyl)-5-fluoro-2,4-pyrimidinediamine]	0.0434	0.454
COc1ccc(Nc2nc(Nc3cc(C)c(F)c(S(N)(=O)=O)c3)ncc2F)cc1Cl [VI-15, N2-(3-Aminosulfonyl-4-fluoro-5-methylphenyl)-N4-(3-chloro-4-methoxyphenyl)-5-fluoro-2,4-pyrimidinediamine]	0.045	0.767
NS(=O)(=O)c1cccc(Nc2ncc(F)c(Nc3ccc(CCCF)cc3)n2)c1 [VI-83, N2-(3-Aminosulfonylphenyl)-5-fluoro-N4-[4-(3-fluoropropyl)phenyl]-2,4-pyrimidinediamine]	0.113	0.535
C#CCOc1ccc(Nc2nc(Nc3ccc(N4CCN(C)CC4)c(S(N)(=O)=O)c3)ncc2F)cc1 [VI-70, N2-[3-Aminosulfonyl-4-(1-methylpiperazin-4-yl)phenyl]-5-fluoro-N4-[4-(prop-2-ynyloxy)phenyl]-2,4-pyrimidinediamine]	0.0706	0.657
COc1ccc(Nc2nc(Nc3ccc(N4CCN(C)CC4)c(S(N)(=O)=O)c3)ncc2F)cc1Cl [VI-116, N2-[3-Aminosulfonyl-4-(4-methylpiperazine-1-yl)phenyl]-N4-(3-chloro-4-methoxyphenyl)-5-fluoro-2,4-pyrimidinediamine]	0.0311	0.673
NS(=O)(=O)c1cccc(Nc2ncc(F)c(Nc3ccc(CCCO)cc3)n2)c1 [VI-86, N2-(3-Aminosulfonylphenyl)-5-fluoro-N4-[4-(3-hydroxypropyl)phenyl]-2,4-pyrimidinediamine]	0.153	0.487
Cc1ccc(Nc2ncc(F)c(Nc3ccc(O)cc3)n2)cc1S(N)(=O)=O [VI-102, N2-(3-Aminosulfonyl-4-methylphenyl)-5-fluoro-N4-[4-hydroxyphenyl]-2,4-pyrimidinediamine]	0.183	2.8
Cc1ccc(Nc2ncc(F)c(Nc3ccc4ncccc4c3)n2)cc1S(N)(=O)=O [VII-69, N2-(3-Aminosulfonyl-4-methylphenyl)-5-fluoro-N4-(quinolin-6-yl)-2,4-pyrimidinediamine]	0.0767	0.99
N#CCN1C(=O)COc2ccc(Nc3nc(Nc4cccc(S(N)(=O)=O)c4)ncc3F)cc21 [Compound V-7, N2-(3-Aminosulphonylphenyl)-5-fluoro-N4-(3-oxo-4-cyanomethyl-benz[1,4]oxazin-6-yl]-2,4-pyrimidinediamine]	0.0588	0.821
CN1C(=O)CSc2ccc(Nc3nc(Nc4ccc(S(N)(=O)=O)cc4)ncc3F)cc21 [VII-48, N2-(4-Aminosulfonylphenyl)-5-fluoro-N4-(4-methyl-3-oxo-benz[1,4]thiazin-6-yl)-2,4-pyrimidinediamine]	0.0308	0.66
NS(=O)(=O)c1cccc(Nc2ncc(F)c(Nc3ccc(Cc4ccncc4)cc3)n2)c1 [III-128, N2-(3-Aminosulfonylphenyl)-5-fluoro-N4-[4-(4-pyridylmethyl)phenyl]-2,4-pyrimidinediamine p-Toluenesulfonic Acid Salt]	0.145	1.44
Cc1ccc(Nc2ncc(F)c(Nc3ccc4c(c3)N(CC#N)C(=O)CS4)n2)cc1S(N)(=O)=O [Compound V-13, N2-(3-Aminosulphonyl4-methylphenyl)-5-fluoro-N4-(3-oxo-4-cyanomethyl-benzo[1,4]thiazin-6-yl)-2,4-pyrimidinediamine]	0.0529	1.2
Cc1ccc(Nc2ncc(F)c(Nc3cccc(-c4cnco4)c3)n2)cc1S(N)(=O)=O [IV-2, N2-(3-Aminosulfonyl-4-methylphenyl)-5-fluoro-N4-[3-(1,3-oxazol-5-yl)phenyl]-2,4-pyrimidinediamine]	0.08	0.705
N#CCc1c[nH]c2c(Nc3nc(Nc4cccc(S(N)(=O)=O)c4)ncc3F)cccc12 [IX-15, N2-(3-Aminosulfonylphenyl)-N4-(3-cyanomethyl-1H-indol-7-yl)-5-fluoro-2,4-pyrimidinediamine]	0.217	5.36
Cc1ccc(Nc2ncc(F)c(Nc3ccc(C(=O)N4CCSCC4)cc3)n2)cc1S(N)(=O)=O [IX-35, N2-(3-Aminosulfonyl-4-methylphenyl)-5-fluoro-N4-[4-(4-thiomorpholinyl)carbonylphenyl]-2,4-pyrimidinediamine]	0.455	2.1
Cc1ccc(Nc2ncc(F)c(Nc3ccc(C)c(S(N)(=O)=O)c3)n2)cc1S(N)(=O)=O [VI-114, N2,N4-Bis-(3-aminosulfonyl-4-methylphenyl)-5-fluoro-2,4-pyrimidinediamine]	0.209	33.2
COc1ccc(Nc2nc(Nc3cccc(S(N)(=O)=O)c3)ncc2Br)cc1Cl [VI-26, N2-(3-aminosulfonylphenyl)-5-bromo-N4-(3-chloro-4-methoxyphenyl)-2,4-pyrimidinediamine]	0.0444	0.257
